Earlier results, collected in patent US20040110781A1 (priority 2002, published 2004).

Test system: excitory opioid receptors on sensory neurons

SMILES: C[C@@H](NC(=O)[C@@H](N)Cc1ccc(O)cc1)C(=O)NCC(=O)N[C@@H](Cc1ccccc1)C(=O)NNC(=O)[C@H](Cc1ccccc1)NC(=O)CNC(=O)[C@@H](C)NC(=O)[C@@H](N)Cc1ccc(O)cc1 [biphalin]
- action on excitory opioid receptor functions: selective antagonists of excitory opioid receptors functions
